Data set [1] is described as follows: Storage of lyophilized precursor. It is filed as physicochemical. As to conditions: lyophilized powder, kept at 25° C. for up to 14 days.
Another data set deals with CD-1 mice. The data set can be described thus: Extended single-dose toxicity study (GLP). Format: in vivo. The procedure:
(§1) The study was designed as an extended single-dose toxicity study in one rodent species and performed under GLP conditions. NODAGA-PSMA I&T toxicity was evaluated after intravenous administration on day 1 of the study, followed by an observation period of 2 weeks. 60 (30 males and 30 females) CD-1 mice were divided into one dose group and one control group. The test item was administered once by i.v. administration into the tail vein. In each of the two groups, (I) 10 male and 10 female animals were euthanized the day after dosing, (II) 5 male and 5 female recovery animals were kept for an observation period of 2 weeks after dosing to detect possible delayed occurrence or persistence of, or recovery from toxic effects.
(§2) The dose animals' group was injected with 5 mg/kg NODAGA-PSMA I&T in 5% dimethyl sulfoxide (application volume 5 mL/kg) as a vehicle. The control group underwent injection of the vehicle alone (5 mL/kg). The animals were observed daily for signs of toxicity and morbidity/mortality. All animals were sacrificed for necropsy. Blood was taken at the time of necropsies to analyze hematological and clinical biochemistry parameters and urine for urinalysis. The wet weight of a tissue subset was taken, and a set of organs/tissues was preserved. A complete histopathological evaluation of the tissues was performed on treated and control animals.

The nature of data set [2]: Extended single-dose toxicity study (GLP). Format: in vivo. The conditions noted are these: both sexes, mouse, in vivo, iv, 5 mg/kg; single i.v. dose, CD-1 mice; read-out: no adverse effect level (NOAEL). The procedure: as §1, §2
For data set [3] the following is noted: approved PET radiotracers, for comparison; cited from earlier work.
A short description of data set [4]: Pharmacokinetics in healthy mice. It is filed as in vivo. The procedure:
The pharmacokinetics of the investigated radiopharmaceutical was evaluated in healthy female BALB/c mice from 1 to 24 hours. For the latest time points (12 and 24 hours), NODAGA-PSMA I&T was radiolabeled with ^64Cu obtained from the Tübingen University Hospital. The use of a different PET copper isotope is justified by the longer half-life of ^64Cu (t1/2=12.7 hours), which is more appropriate for tests that include delayed time points. Additionally, using an isotope from the same element ensures that the radiopharmaceutical retains its chemical and physical properties, guaranteeing consistency in the study. Mice were injected i.v. with 4 MBq (200 pmol) of [^61/64Cu]Cu-NODAGA-PSMA I&T diluted to 100 μL with saline solution. The data were combined with the results obtained from the groups of xenografts at 1 and 4 hours post-injection, as the biodistribution in nude mice was the same as in the healthy mice. The results are presented in Table 27 and are expressed as mean±standard deviation.

The target in the next data set is T1, PSMA (Homo sapiens, UniProt Q04609).
T1 construct: endogenous in cells; host or cells: LNCaP
T1 sequence (Q04609 whole entry): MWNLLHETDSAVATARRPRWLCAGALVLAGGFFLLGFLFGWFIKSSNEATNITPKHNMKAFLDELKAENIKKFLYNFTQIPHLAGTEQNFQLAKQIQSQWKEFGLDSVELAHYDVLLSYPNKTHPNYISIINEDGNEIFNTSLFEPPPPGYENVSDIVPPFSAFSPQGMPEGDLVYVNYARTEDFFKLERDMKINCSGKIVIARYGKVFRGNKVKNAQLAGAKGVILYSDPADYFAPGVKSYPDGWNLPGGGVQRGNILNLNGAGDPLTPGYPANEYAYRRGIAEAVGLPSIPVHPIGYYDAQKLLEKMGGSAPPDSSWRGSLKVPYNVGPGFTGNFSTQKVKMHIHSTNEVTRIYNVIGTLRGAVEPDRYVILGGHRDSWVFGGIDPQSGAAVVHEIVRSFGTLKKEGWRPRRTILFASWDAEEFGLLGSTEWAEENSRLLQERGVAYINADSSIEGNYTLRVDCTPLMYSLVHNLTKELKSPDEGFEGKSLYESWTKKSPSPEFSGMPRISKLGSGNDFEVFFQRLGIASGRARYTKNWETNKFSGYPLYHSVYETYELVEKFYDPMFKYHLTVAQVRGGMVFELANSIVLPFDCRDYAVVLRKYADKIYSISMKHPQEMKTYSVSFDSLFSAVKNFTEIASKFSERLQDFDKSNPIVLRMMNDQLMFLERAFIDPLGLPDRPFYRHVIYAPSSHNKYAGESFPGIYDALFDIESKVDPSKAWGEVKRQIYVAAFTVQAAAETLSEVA
The data set can be described thus: Binding affinity (IC50), competition with [^125I]I-BAKuE on LNCaP cells. The conditions noted are these: 0.2 nM [^125I]I-BAKuE, 1 hour on ice. The procedure:
The binding affinity of NODAGA-PSMA I&T was determined by measuring IC50 by labelling the precursor with natural copper (^natCu). […] The radioiodinated ((S)-1-carboxy-5-(4-(-^125I-iodo-benzamido) pentyl) carbamoyl)-L-glutamic acid ([^125I]I-BAKuE) was used as reference radioligand. The assay was performed on LNCaP cells, human prostate cancer cells characterized by high expression levels of PSMA.
^natCu-NODAGA-PSMA I&T was produced by dissolving NODAGA-PSMA I&T (0.7 μmol) in 0.30 mL of ammonium acetate (0.5 M, pH 8), followed by the addition of 0.15 mL CuCl2 in 0.05 M hydrochloric acid. The reaction mixture was incubated for 15 min at 95° C. The product was purified from unlabeled ^natCu using a SepPak Classic C18 cartridge (Waters, Eschborn, Germany), washed with water, and eluted with 2 mL methanol. After evaporation of methanol, the product was reconstituted in 0.3 mg/mL 30% (v/v) acetonitrile in water.
The assay was performed on LNCaP cells seeded in 24-well plates. The cells were incubated with increasing concentrations of ^natCu-NODAGA-PSMA I&T (ranging from 0.1 up to 100 nM) in the presence of 0.2 nM [^125]I-BAKuE. After 1 hour of incubation on ice, the unbound (free) [^125I]I-BAKuE was collected by removing the medium (EMEM EBS) and the cells were detached with 1 M sodium hydroxide for counting (bound radioligand). […]

Setting [5] is: 5 mg/kg i.v., CD-1 mice, transitory, non-adverse.
The mark [6] stands for this setting: 12 hours post-injection (^64Cu).
[7] abbreviates: 24 hours post-injection (^64Cu).

As a reminder, the NOAEL is the highest dose or exposure tested at which no adverse effect was seen. Broadly, the IC50 is the concentration needed to halve the response being measured.

Take `O=C(O)CC[C@H](NC(=O)N[C@@H](CCCCNC(=O)CCCCCCC(=O)NCCCC[C@@H](NC(=O)[C@@H](Cc1ccccc1)NC(=O)[C@@H](Cc1ccc(O)c(I)c1)NC(=O)CC[C@H](C(=O)O)N1CCN(CC(=O)O)CCN(CC(=O)O)CC1)C(=O)O)C(=O)O)C(=O)O` [NODAGA-PSMA I&T, NODAGA-(I-y) fk (Sub-KuE)]: the degradation on storage entry in data set [1] is reported as “no signs of degradation”. Moreover, in the data set on CD-1 mice (5 mg/kg i.v., CD-1 mice), the clinical tolerance entry is “clinically well-tolerated”, the “effects on body weight gain or food consumption” value is reported as “No effects on body weight gain or food consumption were noted”, the “effects on organ weights” value is listed as “No adverse effects on organ weights were noted” and the “macroscopic or microscopic findings” value is on record as “No macroscopic or microscopic findings that could be attributed to treatment”. In the data set with CD-1 mice (5 mg/kg i.v., CD-1 mice), the “treatment-related mortality or acute adverse effect” value is “no treatment-related mortality or acute adverse effect was registered”. Moreover, in the data set on CD-1 mice (setting [5]), the glucose level result is “decrease in glucose level”, the platelet count result is given as “decrease in platelet count” and the potassium level result is “increase in potassium level”. In the data set with CD-1 mice (versus intended average patient dose 0.4 μg/kg, with dose conversion factor), the safety ratio was determined as 1000 times. Moreover, in data set [2], the NOAEL at 2 weeks was 5 mg/kg.

Consider `O=C(O)CC[C@H](NC(=O)N[C@@H](CCCCNC(=O)c1ccc([18F])nc1)C(=O)O)C(=O)O` [Pylarify], for which the Effective Dose in data set [3] is 0.017 mSv/MBq.

`O=C([O-])CN1CCN(CC(=O)[O-])CCN([C@H](CCC(=O)N[C@H](Cc2ccc(O)c(I)c2)C(=O)N[C@H](Cc2ccccc2)C(=O)N[C@H](CCCCNC(=O)CCCCCCC(=O)NCCCC[C@H](NC(=O)N[C@@H](CCC(=O)O)C(=O)O)C(=O)O)C(=O)O)C(=O)O)CC1.[Cu+2]` [[^61/64Cu]Cu-NODAGA-PSMA I&T]: in data set [4] (1 hour post-injection), the “Biodistribution healthy mice, Adrenal” value turned out to be 14.38 ± 4.39 % AI/g; the “Biodistribution healthy mice, Blood” value stood at 0.33 ± 0.09 % AI/g; the “Biodistribution healthy mice, Femur” value worked out at 2.48 ± 0.97 % AI/g; the “Biodistribution healthy mice, Heart” value worked out at 0.49 ± 0.12 % AI/g. For the same compound, in data set [4] (1 hour post-injection), the “Biodistribution healthy mice, Intestine” value was 2.11 ± 0.85 % AI/g; the “Biodistribution healthy mice, Kidneys” value is listed as 124 ± 21 % AI/g; the “Biodistribution healthy mice, Liver” value came out at 1.12 ± 0.25 % AI/g; the “Biodistribution healthy mice, Lung” value stood at 1.49 ± 0.45 % AI/g. In addition, in data set [4] (1 hour post-injection), the “Biodistribution healthy mice, Muscles” value was 0.99 ± 0.30 % AI/g; the “Biodistribution healthy mice, Pancreas” value stood at 1.37 ± 0.90 % AI/g; the “Biodistribution healthy mice, Salivary glands” value came to 1.89 ± 0.28 % AI/g; the “Biodistribution healthy mice, Spleen” value is 9.33 ± 3.81 % AI/g. Moreover, the “Biodistribution healthy mice, Stomach” value in data set [4] (1 hour post-injection) amounted to 1.12 ± 0.15 % AI/g. For the same compound, in data set [4] (4 hours post-injection), the “Biodistribution healthy mice, Adrenal” value came out at 7.31 ± 2.76 % AI/g; the “Biodistribution healthy mice, Blood” value came to 0.11 ± 0.03 % AI/g; the “Biodistribution healthy mice, Femur” value worked out at 1.34 ± 0.38 % AI/g; the “Biodistribution healthy mice, Heart” value worked out at 0.25 ± 0.06 % AI/g. In data set [4] (4 hours post-injection), the “Biodistribution healthy mice, Intestine” value was determined as 1.12 ± 0.48 % AI/g; the “Biodistribution healthy mice, Kidneys” value is 94 ± 12 % AI/g; the “Biodistribution healthy mice, Liver” value came to 0.88 ± 0.25 % AI/g; the “Biodistribution healthy mice, Lung” value came out at 0.68 ± 0.22 % AI/g. Further, in data set [4] (4 hours post-injection), the “Biodistribution healthy mice, Muscles” value turned out to be 0.45 ± 0.18 % AI/g; the “Biodistribution healthy mice, Pancreas” value turned out to be 0.55 ± 0.16 % AI/g; the “Biodistribution healthy mice, Salivary glands” value turned out to be 0.58 ± 0.12 % AI/g; the “Biodistribution healthy mice, Spleen” value was found to be 2.35 ± 1.45 % AI/g. Besides, the “Biodistribution healthy mice, Stomach” value in data set [4] (4 hours post-injection) was determined as 0.72 ± 0.15 % AI/g. In data set [4] (setting [6]), the “Biodistribution healthy mice, Adrenal” value is recorded as 2.99 ± 0.93 % AI/g; the “Biodistribution healthy mice, Blood” value is reported as 0.11 ± 0.01 % AI/g; the “Biodistribution healthy mice, Femur” value was 0.50 ± 0.10 % AI/g; the “Biodistribution healthy mice, Heart” value is 0.26 ± 0.05 % AI/g. For the same compound, in data set [4] (setting [6]), the “Biodistribution healthy mice, Intestine” value is on record as 0.94 ± 0.41 % AI/g; the “Biodistribution healthy mice, Kidneys” value amounted to 60 ± 9 % AI/g; the “Biodistribution healthy mice, Liver” value is recorded as 0.96 ± 0.18 % AI/g; the “Biodistribution healthy mice, Lung” value was found to be 0.52 ± 0.11 % AI/g. In data set [4] (setting [6]), the “Biodistribution healthy mice, Muscles” value is 0.25 ± 0.05 % AI/g; the “Biodistribution healthy mice, Pancreas” value is reported as 0.28 ± 0.04 % AI/g; the “Biodistribution healthy mice, Salivary glands” value is 0.39 ± 0.05 % AI/g; the “Biodistribution healthy mice, Spleen” value was determined as 1.40 ± 0.57 % AI/g. In addition, the “Biodistribution healthy mice, Stomach” value in data set [4] (setting [6]) is given as 0.52 ± 0.03 % AI/g. Further, in data set [4] (24 hours post-injection), the “accumulated activity in the kidneys” value was below 20 % IA/g. Further, in data set [4] (setting [7]), the “Biodistribution healthy mice, Adrenal” value came to 1.17 ± 0.22 % AI/g; the “Biodistribution healthy mice, Blood” value came out at 0.08 ± 0.01 % AI/g; the “Biodistribution healthy mice, Femur” value was 0.20 ± 0.05 % AI/g; the “Biodistribution healthy mice, Heart” value is 0.21 ± 0.02 % AI/g. Moreover, in data set [4] (setting [7]), the “Biodistribution healthy mice, Intestine” value was 0.46 ± 0.11 % AI/g; the “Biodistribution healthy mice, Kidneys” value was determined as 16.1 ± 4.9 % AI/g; the “Biodistribution healthy mice, Liver” value came to 0.84 ± 0.11 % AI/g; the “Biodistribution healthy mice, Lung” value is reported as 0.32 ± 0.12 % AI/g. In addition, in data set [4] (setting [7]), the “Biodistribution healthy mice, Muscles” value is on record as 0.08 ± 0.02 % AI/g; the “Biodistribution healthy mice, Pancreas” value is on record as 0.17 ± 0.03 % AI/g; the “Biodistribution healthy mice, Salivary glands” value is 0.22 ± 0.05 % AI/g; the “Biodistribution healthy mice, Spleen” value stood at 0.58 ± 0.15 % AI/g. Also, the “Biodistribution healthy mice, Stomach” value in data set [4] (setting [7]) was determined as 0.31 ± 0.05 % AI/g.

Take `O=C([O-])CN(CCN(CC(=O)[O-])Cc1cc(CCC(=O)NCCCCCC(=O)NCCCC[C@H](NC(=O)N[C@@H](CCC(=O)O)C(=O)O)C(=O)O)ccc1[O-])Cc1cc(CCC(=O)O)ccc1[O-].[68Ga+3].[OH3+]` [[^68Ga]Ga-PSMA-11]: the Effective Dose in data set [3] was 0.023 mSv/MBq.

`O=C(O)CC[C@H](NC(=O)N[C@@H](CCCCNC(=O)CCCCCCC(=O)NCCCC[C@@H](NC(=O)[C@@H](Cc1ccccc1)NC(=O)[C@@H](Cc1ccc(O)c(I)c1)NC(=O)CC[C@H](C(=O)O)N1CCN2CCN(CC1)CC(=O)[O][Cu][O]C(=O)C2)C(=O)O)C(=O)O)C(=O)O` [^natCu-NODAGA-PSMA I&T] yielded an IC50 at PSMA of 9.3 ± 1.8 nM.

The record behind these values is patent US20260241046A1, “PROSTATE-SPECIFIC MEMBRANE ANTIGEN RECEPTOR-TARGETING RADIOPHARMACEUTICALS AND USES THEREOF” (Nuclidium AG, priority 2024, published 2026).
